Assay results from patent US20030216569A1, “Method of making HIV protease inhibitors” (priority 1993, published 2003).
Where “and” joins values, the source holds several entries; their conditions need not be identical. Equal values may be shown once. Read-outs that look alike come from different tables or passages of the source. Marks after values point to notes of the source that are not given here.

What was measured:
HIV-1 protease = HIV-1 protease (Human immunodeficiency virus type 1 group M subtype B, UniProt P04585); assay: Fluorescence HIV-1 Protease Inhibitor Assay (Pandex); assay type: biochemical; set-up: made in house; host or cells: E. coli K12 L507/pHP10D (NRRL B-18560)
[1] = test system: Viral SN123 infected CEM cells
Protocol: Purpose: To determine IC50 CC50 for compounds:
Media A [1% DMSO] (100 microliters DMSO+9.9 ml media A)
CEM cells @ [1×10^4] cells/ml (4 plate=40 ml) (6 plate=60 ml)
(need 70 microliters of each)
A-D at [10 mM] in 100% DMSO
4 or 6 u-bottom 96-well plates
4 flat bottom 96-well plates for dilutions
8-10 boxes of sterile costar tips
Approximately 10 reagent trays
1000 cells/well=1×10^4 cells/ml=1000 cells/100 microliters 200 microliters=total volume in a well
Cell Preparation and Plating of Cells, Media A and Media A (1% DMSO)
a. Number a 96-well tissue culture plate for each compound tested, one for a control plate, and one for the control compound.
b. Count cells on hemacytometer and resuspend them in 40 ml or 80 ml of Media A at a concentration of [1×10^4]0 cells/ml.
Counting Cells on a Hemacytomer:
Label two 1.8 ml nuc tubes 1 and 2.
Put 0.5 ml of well mixed CEM cells (in growth phase) in tube 1.
Put 50 micoliters PBS and 40 microliters of trypan blue into tube 2.
Mix up the cells in tube 1 then remove 10 microliters of cells and put them into tube 2.
Mix well in tube 2, then remove 10 microliters of the stained cells and put them on the hemacytometer.
Count the number of cells in the center square of the hemacytometer with the microscope set on 10×.
The concentration of the stock CEM's in cells/ml is as follows:
Cells counted×1×10^5=Concentration of CEM's in [cells/ml].
c. Add 200 microliters Media A to: A1 of places 2-6. These are Blanks. A4-H4 of plate 1. These are Blanks.
d. Add 5 microlicers Media A to all wells of Rows A-D of plates 2-6 except A1 (the top half of each plate).
e. Add 50 microliters of Media A to wells A1-D3 of Plate 1 (the top half of the plate).
f. Add 50 microliters Media A[l% DMSO] to all wells of Columns 1-3 of plate 1.
This puts 1000 cells/well.
h. Put plates in an incubator while doing drug dilutions.
Preparation Control and Test Drugs
(1) Put 60 microliters of DMSO into all wells of Columns 2-12, Rows A-E.
(3) Put 70 microliters of A [10 mM] at 100% DMSO into well B1.
(4) Put 70 microliters of B [10 mM] at 100% DMSO into well C1.
(5) Put 70 microliters of C [10 mM] at 100% DMSO into well D1.
(6) Put 70 microliters of D [10 mM] at 100% DMSO into well E1.
Change tips before each dilution.
(1) In rows A-E of another plate make a row for the first 1:10 dilution to correspond to each compound's 100% DMSO row.
A into Row B for the first 1:10 dilution.
B into Row C for the first 1:10 dilution.
C into Row D for the first 1:10 dilution.
D into Row E for the first 1:10 dilution.
(2) Put 180 microliters of media A into all wells of rows A-E corresponding to the 100% DMSO rows. 2.5 ml needed per row.
(3) Remove 20 microliters from all wells of each row of the 100% DMSO rows and transfer it to the corresponding 1:10 row.
(1) Make a plate for every 3 compounds to be tested.
Use 20 ml of media A per plate.
(3) Transfer 25 microliters of each compound from the row in the 1:10 dilution to the corresponding two rows on the 1:100 dilution plate changing tips before each transfer.
Addition of Viral SN123 to Plates
a. Thaw Sn123 in 37° C. water bath for approximately 10 minutes.
b. Dilute Sn123 1:16 by adding 1 ml of Sn123 to 15 ml of media A.
c. Add 50 microliters of Sn123 [1:16] to wells E1-H12 of plates 2-6 and to wells E1-H3 of plate 1.
Addition of Drugs to Plates
a. Add 50 microliters of the control and test drugs from the rows in the 1:100 dilution plates to the appropriate rows in the final plates (changing tips before each transfer). One row in the 1:100 plate will do 4 rows in the final plate. Leave A1 blank.
b. Incubate all plates 7 days at 37° C. 5% CO2.
c. Do Xtt protocol on day 7 as follows:
d. Preparation of Xtt/PMS Solution: (4 plate=20 ml) (6 plate=30 ml)
100 microliters [100 mM] PMS+4.9 ml PBS=PMS at [2 mM]
(2) Heat 500 ml of H2O in microwave for 5 minutes on high.
(3) Put 20 or 30 ml of phenol red RPMI in a 50 ml centrifuge tube.
(4) Put the RPMI in the beaker of hot water.
(5) Add 20 or 30 mg of XTT to the warmed up RPMI.

[2] = normalized to positive control (=1.0), * = a calculated average, read-out: Fluorescence Assay IC50 in ng/mL (converted)
[3] = value as run, 35B value of the same run in footnote or parentheses, read-out: Pandex IC50 ng/ml (converted)
[4] = Human immunodeficiency virus 1, CCRF-CEM, read-out: Whole cell IC50 nM, CEM cells, values in parentheses are 35B in same assay
[5] = Human immunodeficiency virus 1, CCRF-CEM, read-out: Whole cell IC90 nM, CEM cells, values in parentheses are 35B in same assay
[6] = read-out: Whole cell IC50 nM, CEM cells, values in parentheses are 35B in same assay
[7] = read-out: Whole cell IC90 nM, CEM cells, values in parentheses are 35B in same assay
[8] = normalized to positive control (=1.0), * = a calculated average
[9] = value as run, 35B value of the same run in footnote or parentheses

CC(C)(C)NC(=O)C1CC2CCCCC2CN1CC(O)C(Cc1ccccc1)NC(=O)c1cccc(O)c1F (stereo not drawn) [Example 1, [3S-(3R*,4aR*,8aR*,2′S*,3′R*)]-2-[2′-Hydroxy-3′-phenylmethyl-4′-aza-5′-oxo-5′-(2″-fluoro-3″-hydroxyphenyl)pentyl]decahydroisoquinoline-3-N-t-butylcarboxamide]
IC50 (HIV-1 protease; [2]): 1780 nM
IC50 (HIV-1 protease; [3]): 856 nM

CC(C)(C)NC(=O)C1CC2CCCCC2CN1CC(O)C(Cc1ccccc1)NC(=O)c1cccnc1Cl (stereo not drawn) [Example 2, [3S-(3R*,4aR*,8aR*,2′S*,3′R*)]-2-[2′-Hydroxy-3′-phenylmethyl-4′-aza-5′-oxo-5′-(2″-chloro-pyrid-3″-yl)pentyl] decahydroisoquinoline-3-N-t-butylcarboxamide]
IC50 (HIV-1 protease; [2]): 2000 nM
IC50 (HIV-1 protease; [3]): 963 nM

CCc1c(O)cccc1C(=O)NC(Cc1ccccc1)C(O)CN1CC2CCCCC2CC1C(=O)NC(C)(C)C (stereo not drawn) [Example 3, [3S-(3R*,4aR*,8aR*,2′S*,3′R*)]-2-[2′-Hydroxy-3′-phenylmethyl-4′-aza-5′-oxo-5′-(2″-ethyl-3″-hydroxyphenyl)pentyl] decahydroisoguinoline-3-N-t-butylcarboxamide]
IC50 [1, 4]: 96.1 nM
IC90 [1, 5]: 286 nM
IC50 (HIV-1 protease; [2]): 44 nM
IC50 (HIV-1 protease; [3]): 21.1 nM

CC(C)(C)NC(=O)C1CC2CCCCC2CN1CC(O)C(Cc1ccccc1)NC(=O)c1ccc[n+]([O-])c1 (stereo not drawn) [Example 5, [3S-(3R*,4aR*,8aR*,2′S*,3′R*)]-2-[2′-Hydroxy-3′-phenylmethyl-4′-aza-5′-oxo-5′-(pyrid-3″yl-N-oxidyl)pentyl] decahydroisoquinoline-3-N-t-butylcarboxamide]
IC50 (HIV-1 protease; [2]): 5030 nM
IC50 (HIV-1 protease; [3]): 1910 nM

CC(C)(C)NC(=O)C1CC2CCCCC2CN1CC(O)C(Cc1ccccc1)NC(=O)c1cccc(O)c1Cl (stereo not drawn) [Example 11, [3S-(3R*,4aR*,8aR*,2′S*,3′R*)]-2-[2′-Hydroxy-3′-phenylmethyl-4′-aza-5′-oxo-5′-(2″-chloro-3″-hydroxyphenyl)pentyl] decahydroisoquinoline-3-N-t-butylcarboxamide]
IC50 [1, 4]: 114 nM
IC50 (HIV-1 protease; [2]): 9.17 nM
IC50 (HIV-1 protease; [3]): 24.6 nM

Cc1c(O)cccc1C(=O)NC(Cc1ccccc1)C(O)CN1CC2CCCCC2CC1C(=O)NC(C)(C)C (stereo not drawn) [Example 12, [3S-(3R*,4aR*,8aR*,2′S*,3′R*)]-2-[2′-Hydroxy-3′-phenylmethyl-4′-aza-5′-oxo-5′-(2″-methyl-3″-hydroxyphenyl)pentyl] decahydroisoquinoline-3-N-t-butylcarboxamide]
IC50 ([1]; Human immunodeficiency virus 1, CCRF-CEM, read-out: Whole cell IC50 nM, CEM cells, tested as the mesylate salt): 35.7 nM
IC50 [1, 4]: 15 nM
IC90 ([1]; Human immunodeficiency virus 1, CCRF-CEM, read-out: Whole cell IC90 nM, CEM cells, tested as the mesylate salt): 91.8 nM
IC90 [1, 5]: 47.8 nM
IC50 [1, 6]: 22.3 nM
IC90 [1, 7]: 73.2 nM
IC50 (HIV-1 protease; [2]): 15.5 nM
IC50 (HIV-1 protease; [3]): 21.3 nM and 5.23 nM and 17.5 nM

CC(C)(C)NC(=O)C1CC2CCCCC2CN1CC(O)C(Cc1ccccc1)NC(=O)c1ccccc1C(F)(F)F (stereo not drawn) [Example 15, [3S-(3R*,4aR*,8aR*,2′S*,3′R*)]-2-[2′-Hydroxy-3′-phenylmethyl-4′-aza-5′-oxo-5′-(2″-trifluoromethylphenyl)pentyl] decahydroisoquinoline-3-N-t-butylcarboxamide]
IC50 (HIV-1 protease; [2]): 657 nM
IC50 (HIV-1 protease; [3]): 315 nM

CC(C)(C)NC(=O)C1CC2CCCCC2CN1CC(O)C(Cc1ccccc1)NC(=O)c1c(Cl)ccc(O)c1Cl (stereo not drawn) [Example 17, [3S-(3R*,4aR*,8aR*,2′S*,3′R*)]-2-[2′-Hydroxy-3′-phenylmethyl-4′-aza-5′-oxo-5′-(2″,6″-dichloro-3″-hydroxyphenyl)pentyl] decahydroisoquinoline-3-N-t-butylcarboxamide]
Fluorescence Assay IC50 in ng/mL (HIV-1 protease; [8]): 269* ng/mL
Pandex IC50 ng/ml (HIV-1 protease; [9]): 346^b ng/ml

Cc1c(N)cccc1C(=O)NC(Cc1ccccc1)C(O)CN1CC2CCCCC2CC1C(=O)NC(C)(C)C (stereo not drawn) [Example 18, [3S-(3R*,4aR*,8aR*,2′S*,3′R*)]-2-[2′-Hydroxy-3′-phenylmethyl-4′-aza-5′-oxo-5′-(2″-methyl-3″-aminophenyl)pentyl] decahydroisoquinoline-3-N-t-butylcarboxamide]
IC50 [1, 4]: 739 nM
IC50 (HIV-1 protease; [2]): 126 nM
IC50 (HIV-1 protease; [3]): 17.8 nM

CC(C)c1c(O)cccc1C(=O)NC(Cc1ccccc1)C(O)CN1CC2CCCCC2CC1C(=O)NC(C)(C)C (stereo not drawn) [Example 20, [3S-(3R*,4aR*,8aR*,2′S*,3′R*)]-2-[2′-Hydroxy-3′-phenylmethyl-4′-aza-5′-oxo-5′-(2″-iospropyl-3″-hydroxyphenyl)pentyl] decahydroisoquinoline-3-N-t-butylcarboxamide]
IC50 [1, 4]: 186 nM
IC90 [1, 5]: 671 nM
IC50 (HIV-1 protease; [2]): 11.5 nM
IC50 (HIV-1 protease; [3]): 151 nM

CCCCc1c(O)cccc1C(=O)NC(Cc1ccccc1)C(O)CN1CC2CCCCC2CC1C(=O)NC(C)(C)C (stereo not drawn) [Example 21, [3S-(3R*,4aR*,8aR*,2′S*,3′R*)]-2-[2′-Hydroxy-3′-phenylmethyl-4′-aza-5′-oxo-5′-(2″-butyl-3′″-hydroxyphenyl)pentyl] decahydroisoquinoline-3-N-t-butylcarboxamide]
IC50 [1, 4]: 414 nM
IC90 [1, 5]: 886 nM
IC50 (HIV-1 protease; [2]): 16.3 nM
IC50 (HIV-1 protease; [3]): 13.7 nM

CCCc1c(O)cccc1C(=O)NC(Cc1ccccc1)C(O)CN1CC2CCCCC2CC1C(=O)NC(C)(C)C (stereo not drawn) [Example 22, [3S-(3R*,4aR*,8aR*,2′S*,3′R*)]-2-[2′-Hydroxy-3′-phenylmethyl-4′-aza-5′-oxo-5′-(2″-propyl-3″-hydroxyphenyl)pentyl] decahydroisoquinoline-3-N-t-butylcarboxamide]
IC50 [1, 4]: 400 nM
IC90 [1, 5]: 798 nM
IC50 (HIV-1 protease; [2]): 1.29 nM
IC50 (HIV-1 protease; [3]): 124 nM

Cc1c(O)cccc1C(=O)NC(Cc1ccccc1)C(O)CN1CC2CCCCC2CC1C(=O)NC(C)(C)C (stereo not drawn) [Example 23, [3S-(3R*,4aR*,8aR*,2′S*,3′R*)]-2-[2′-Hydroxy-3′-phenylmethyl-4′-aza-5′-oxo-5′-(2″-methyl-3″-hydroxyphenyl)pentyl] decahydroisoquinoline-3-N-t-butylcarboxamide]
IC50 [1, 6]: 2.39 nM
IC90 [1, 7]: 19 nM
Fluorescence Assay IC50 (HIV-1 protease; [8]): 0.00025 µg/mL
Pandex IC50 ng/ml (HIV-1 protease; [9]): 0.2^c ng/ml and 0.16^d ng/ml and 0.2^b ng/ml

Cc1c(O)cccc1C(=O)NC(CSc1ccc2ccccc2c1)C(O)CN1CC2CCCCC2CC1C(=O)NC(C)(C)C (stereo not drawn) [Example 24, [3S-(3R*,4aR*,8aR*,2′S*,3′R*)]-2-[2′-Hydroxy-3′-(naphth-2-ylthiomethyl)-4′-aza-5′-oxo-5′-(2″-methyl-3″-hydroxyphenyl)pentyl] decahydroisoquinoline-3-N-t-butylcarboxamide]
IC50 [1, 4]: 25 nM
Pandex % at 20 ng/ml (HIV-1 protease; at 20 ng/ml): 84%/20^d
IC50 (HIV-1 protease; [2]): 9.39 nM
IC50 (HIV-1 protease; [3]): 4.53 nM

Cc1c(O)cccc1C(=O)N[C@@H](CSc1ccc2ccccc2c1)[C@H](O)CN1CCCC[C@H]1C(=O)NC(C)(C)C [Example 25, [2S-(2R*,2′S*,3′S*)]-1-[2′-Hydroxy-3′-(naphth-2-ylthiomethyl-4′-aza-5′-oxo-5′-(2″-methyl-3″-hydroxyphenyl)pentyl]piperidine-2-N-t-butylcarboxamide]
IC50 (HIV-1 protease; [2]): 5.68 nM
IC50 (HIV-1 protease; [3]): 3.55 nM and 25.4 nM

Cc1c(O)cccc1C(=O)N[C@@H](Cc1ccccc1)[C@H](O)CN1CCN(Cc2cccnc2)C[C@H]1C(=O)NC(C)(C)C [Example 26, [2S-(2R*,2′S*,3′R*)]-1-[2′-Hydroxy-3′-phenylmethyl-4′-aza-5′-oxo-5′-(2″-methyl-3″-hydroxyphenyl)pentyl]-4-(pyrid-3′″-ylmethyl) piperazine-2-N-t-butylcarboxamide]
IC50 [1, 4]: 56 nM
IC90 [1, 5]: 166 nM
IC50 (HIV-1 protease; [2]): 5.4 nM
IC50 (HIV-1 protease; [3]): 4.01 nM

[3S-(3R*,4aR*,8aR*,2′S*,3′S*)]-2-[2′-Hydroxy-3′-phenylmethyl-4′-aza-5′-oxo-5′-[2″-methyl-3″-N-(methylsulfonyl)amino-phenyl)]pentyl] decahydroisoguinoline-3-N-t-butylcarboxamide [Example 36]
Fluorescence Assay IC50 (HIV-1 protease; [8]): 0.062 µg/mL
Pandex IC50 ng/ml (HIV-1 protease; [9]): 93^e ng/ml
